Series [1] is described as follows: Hydrolytic stability of copanlisib in aqueous solutions (HPLC). The following applies: water, buffer pH 7, 0.1 M hydrochloric acid and 0.1 M sodium hydroxide solution. The class given is physicochemical. The procedure:
The stationary phase is an XBridge Shield HPLC column (150 mm×3.0 mm, 3.5 μm particle size). For peak separation, gradient elution with a flow rate of 0.5 mL/min is chosen using a sodium dodecyl sulfate ion pair eluent (in water with phosphoric acid) as mobile phase A, and a sodium dodecyl sulfate ion pair eluent (in acetonitrile with 20% water and phosphoric acid) as mobile phase B. The applied gradient profile contains four steps running from 40% to 50% mobile phase B within 5 min, from 50% to 65% mobile phase B within 25 min and from 65% to 100% mobile phase B within another 5 min, followed by a 10 min isocratic phase at 100% mobile phase B. The column temperature is kept at 25° C. and the injection volume is 3.0 μL. […] (flow rate of 0.5 ml/min). […] The impurity was assayed at a wavelength of 210 nm and taken into account to determine the degradation products. The different aqueous solutions (0.05% copanlisib; after addition of 50% 2-propanol, [buffer solution filtered with 0.5 μm membrane filter]) were stored at 25° C. and 70° C. for 24 h and one week. An analytical HPLC-method has been developed to determine assay and organic impurities of copanlisib as well as degradation products.

For series [2], the system named is relapsed or refractory indolent B-cell lymphoma. Kind of series: Copanlisib in patients with relapsed or refractory indolent B-cell lymphoma: tumor response. The class given is in vivo, human.
Experimental: (§1) Methods: Patients with indolent B-cell non-Hodgkin lymphoma (4 subtypes: follicular (FL), marginal zone (MZL), small lymphocytic (SLL) and lymphoplasmacytoid/Waldenström macroglobulinemia (LPL-WM)) and relapsed after, or refractory to, ≥2 prior lines of treatment were eligible. […] Copanlisib (60 mg, I.V.) was intermittently administered on days 1, 8 and 15 of a 28-day cycle. The primary efficacy endpoint was objective tumor response rate (ORR) as assessed per independent radiologic review (Cheson et al., JCO 20:579, 2007).
The nature of series [3]: Copanlisib in patients with relapsed or refractory indolent B-cell lymphoma: adverse events. The class given is in vivo, human.
Experimental: as §1
[4] abbreviates: full analysis set, 60 mg I.V. on days 1, 8 and 15 of a 28-day cycle.

Structures can show the parent of a compound that is named as a salt. Where two headings read alike, the source gives them in different places.

As for `COc1c(OCCCN2CCOCC2)ccc2c1N=C(NC(=O)c1cnc(N)nc1)N1CCN=C21` [copanlisib, 2-amino-N-[7-methoxy-8-(3-morpholin-4-ylpropoxy)-2,3-dihydroimidazo[1,2-c]quinazolin-5-yl]pyrimidine-5-carboxamide], in series [1], the “Hydrolytic stability in words” value was “hydrolytic instability”. Moreover, the Median overall survival result in series [2] (at the time of primary analysis) was “had not yet been reached”. Further, in series [2] (full analysis set (range 0-736)), the “KM-estimate of median PFS” value is given as 340 days. Further, in series [2] (setting [4]), the “overall response rate (ORR)” value was 59.2%, the “partial response (PR)” value turned out to be 47.2%, the progressive disease is listed as 2.1 % of patients and the stable disease is given as 29.6 % of patients. In series [3] (all grade), the “AE of interest: colitis” value is recorded as 0.7%, the “AE of interest: diarrhea” value stood at 18%, the “AE of interest: lung infection” value worked out at 14% and the “AE of interest: neutropenia” value is listed as 25%. In series [3] (all grade), the “AE of interest: pneumonitis” value stood at 7%, the “treatment-related AE: hypertension” value is 29% and the “treatment-related AE: transient hyperglycemia” value was determined as 49%. Also, in series [3] (all-grade), the “Laboratory toxicity: alanine aminotransferase” value is 23% and the “Laboratory toxicity: aspartate aminotransferase” value was found to be 28%. In addition, in series [3] (full analysis set), the colonic perforations entry is recorded as “No colonic perforations occurred”, the “deaths (number)” value was found to be 6 and the “non-fatal opportunistic infections (number)” value was “two”. For the same compound, in series [3] (grade 3+), the “AE of interest: colitis” value was found to be 0.7%, the “AE of interest: diarrhea” value is 4%, the “AE of interest: lung infection” value was found to be 11% and the “AE of interest: neutropenia” value is reported as 19%. In series [3] (grade 3+), the “AE of interest: pneumonitis” value was found to be 1.4%, the “treatment-related AE: hypertension” value was found to be 23% and the “treatment-related AE: transient hyperglycemia” value came to 40%. Besides, in series [3] (grade-1), the “Laboratory toxicity: alanine aminotransferase” value stood at 19% and the “Laboratory toxicity: aspartate aminotransferase” value is reported as 25%. For the same compound, in series [3] (lung infection, respiratory failure, and a thromboembolic event), the “deaths attributed to copanlisib (number)” value is listed as 3.

Take `COc1c(OCCCN2CCOCC2)ccc2c1N=C(NC(=O)c1cnc(N)nc1)N1CCN=C21` [copanlisib dihydrochloride, 2-amino-N-[7-methoxy-8-(3-morpholin-4-ylpropoxy)-2,3-dihydroimidazo[1,2-c]quinazolin-5-yl]pyrimidine-5-carboxamide dihydrochloride]: the “Descriptive term (according to Ph. Eur./USP)” value (shortened to “Descriptive term”) reads like this: (0.1M Hydrochloric acid, 25° C.) “freely soluble”; (Buffer (citrate) pH 3, 25° C.) “freely soluble”; (Buffer (citrate) pH 4, 25° C.) “soluble”; (Buffer (citrate) pH 5, 25° C.) “very slightly soluble”; (Buffer (phosphate) pH 1, 25° C.) “freely soluble”; (Buffer (phosphate) pH 2, 25° C.) “freely soluble”. Besides, the “Descriptive term” value (Buffer (phosphate) pH 6, 25° C.) was “practically insoluble”; the “Descriptive term” value (Buffer (phosphate) pH 7, 25° C.) is “practically insoluble”; the “Descriptive term” value (Water, 25° C.) is recorded as “freely soluble”.

The record behind these values is US20200281932A1, “FORMULATIONS OF COPANLISIB” (Bayer Pharma Aktiengesellschaft, priority 2017, published 2020).
